According to the NIST ThermoML archive (doi:10.1016/j.jct.2007.11.009):
Numbers after ± are expanded uncertainties.

Assay: refractive index (Na D-line) (dimensionless)
Settings: 298.15 K; 101.33 kPa; Liquid; Standard Abbe refractometry

Row | refractive index | Structure (SMILES)
1 | 1.4979 ± 0.0007 | c1ccccc1 [benzene]
2 | 1.395 ± 0.0007 | CCCCCCCC [octane]
